Laboratory results: patent US6856913B1, “Decentralized patient management method” (Swineburn Limited, priority 1998, dated 2005)

Tested on: children diagnosed with ADHD
Assay: SSVEP phase/latency change during the Continuous Performance Task (CPT A-X) before and one hour after stimulant medication
Format: in vivo, human
Details: one hour after medication vs before
Method: An example of the invention will now be briefly described with reference to FIGS. 15 and 16. The method was used on patients who are children diagnosed with Attention Deficit […] Disorder (ADHD).
Children diagnosed with ADHD were tested to examine the effects of stimulant medication (methylphenidate or Ritalin) on the amplitude and phase of the steady state visually evoked potential (SSVEP). The children performed two cognitive tasks before the stimulant medication was administered and then repeat the tasks one hour after stimulant medication was administered.
The first task was a low demand vigilance task where the patients were required to press a micro switch on the predictable appearance of the number “5” in the repeated sequence “1, 2, 3, 4, 5”. The second task was known as the A-X version of the Continuous Performance Task (CPT A-X). In this more demanding task, patients were required to press a micro switch on the appearance of the letter “X” if and only if it has been preceded by the letter “A”.
FIGS. 15 and 16 illustrate the spatial distribution of the difference between the mean SSVEP phase, evaluated over the entire CPT A-X task before medication, and the point in time corresponding to the disappearance of the letter “A” in the CPT A-X task after medication.

COC(=O)C(c1ccccc1)C1CCCCN1 (centres unmarked) [methylphenidate]
change in SSVEP phase (latency) at prefrontal sites (FIG. 15, child diagnosed with ADHD and responding to the stimulant medication): large SSVEP latency reduction at prefrontal sites
change in SSVEP phase (latency) at prefrontal sites (FIG. 16, different child diagnosed with ADHD and not responding to stimulant medication): absence of SSVEP latency reduction at prefrontal sites
